Experimental data published in patent publication US20250213603A1, “PHARMACEUTICAL COMPOSITION FOR TREATING CANCER” (SAGA UNIVERSITY, priority 2021, published 2025).

Columns and labels:
K562 [1] = experiment: Cell proliferation inhibition, modified MTT assay (Cell Counting Kit-8); format: cell-based; settings: K562, incubation for 72 hours, average±SD of 3 independent experiments
Method: (§1) The proliferation inhibitory action in leukemia cell lines was evaluated using a modified dimethyl-thiazole-diphenyl-tetrazolium (MTT) assay as follows.
(§2) The hepatocyte line and leukemia cell lines (K562, BV173, Ba/F3 p190, Ba/F3 p210, MYL-R, K562-IMR, and KBM5-STI) were used in this example. The FA-HP-β-CyD synthesized in Example 1 was used.
(§3) The cell viability was evaluated using the trypan blue dye exclusion method. Cell proliferation was evaluated using a Cell Counting Kit-8 (Dojindo, Japan), which is an MTT assay. 2×10^4 of each cell was seeded with 100 μL RPMI1640 medium (Sigma-Aldrich, USA) per well to a flatbottom 96-well plate (Greiner Labortechnik, Hamburg, Germany), and incubation for 72 hours was carried out with exposure to HP-β-CyD and FA-HP-β-CyD at different concentrations (0 mM (control: CT), 0.05 mM, 0.1 mM, 0.25 mM, 0.5 mM, and 1 mM).

hepatocyte = experiment: as above; format: cell-based; settings: hepatocyte line, incubation for 72 hours, average±SD of 3 independent experiments
Method: as §1, §2, §3

K562-IMR = experiment: as above; format: cell-based; settings: incubation for 72 hours, average±SD of 3 independent experiments
Method: as §1, §2, §3

BV173 [2] = experiment: as above; format: cell-based; settings: BV173, incubation for 72 hours, average±SD of 3 independent experiments
Method: as §1, §2, §3

KBM5-STI = experiment: as above; format: cell-based; settings: incubation for 72 hours, average±SD of 3 independent experiments
Method: as §1, §2, §3

Ba/F3 P190 = experiment: as above; format: cell-based; settings: Ba/F3 P190, incubation for 72 hours, average±SD of 3 independent experiments
Method: as §1, §2, §3

MYL-R = experiment: as above; format: cell-based; settings: incubation for 72 hours, average±SD of 3 independent experiments
Method: as §1, §2, §3

Ba/F3 P210 = experiment: as above; format: cell-based; settings: Ba/F3 P210, incubation for 72 hours, average±SD of 3 independent experiments
Method: as §1, §2, §3

K562 [3] = experiment: Effect of autophagy inhibition on the cell proliferation inhibitory effect; format: cell-based; settings: 5 mM FA-HP-β-CyD or 15 mM HP-β-CyD, chloroquine, bafilomycin A1 or LY294002 (FIG. 8)
Method: (§4) The effect of autophagy inhibition on the cell proliferation inhibitory effect was evaluated as follows.
(§5) Leukemia cell lines (K562 and BV173) were used in this example. The FA-HP-β-CyD synthesized in Example 1 was used.
(§6) 2×10^5 of each cell with 100 μL RPMI1640 medium (Sigma-Aldrich, USA) was seeded per well to a flatbottom 96-well plate (Greiner Labortechnik, Hamburg, Germany), and treatment was carried out for 2 hours at 37° C. with 5 mM FA-HP-β-CyD and 15 mM HP-β-CyD. Pretreatment was then carried out for 24 hours with the autophagy inhibitors chloroquine (20 μM) (FUJIFILM Wako Pure Chemical Corporation), bafilomycin A1 (1 nM) (Funakoshi), or LY294002 (50 μM) (FUJIFILM Wako Pure Chemical Corporation). Cell proliferation was then evaluated using a Cell Counting Kit-8 (Dojindo, Japan), which is a modified dimethyl-thiazole-diphenyl-tetrazolium (MTT) assay.
(§7) Here, the “CT” in FIG. 8 was evaluated as follows. Thus, 2×10^5 of each cell with 100 μL RPMI1640 medium was seeded per well to a flatbottom 96-well plate and culture was carried out for 2 hours+24 hours as in the exposure groups, but without exposure to the agent or autophagy inhibitor, and this was used as the CT. This CT was compared with the exposure groups.
(§8) Significant difference was determined as follows. That is, the data were analyzed using a two-sided Student's t-test without a comparison table. A value of P<0.05 was considered to indicate a significant difference.

BV173 [4] = experiment: as above; format: cell-based; settings: 5 mM FA-HP-β-CyD or 15 mM HP-β-CyD, chloroquine, bafilomycin A1 or LY294002 (FIG. 8)
Method: as §4, §5, §6, §7, §8

[5] = test system: BV173 cells (leukemia cells); experiment: Ventricular invasion mouse model (leukemic invasion of the central nervous system); format: in vivo, BRJ mice; settings: HP-β-CyD 30 mg/kg
Method: Here, the effect of HP-β-CyD and FA-HP-β-CyD on leukemic central nervous system invasion was test by constructing a mouse model.
BRJ mice (female) were anesthetized (intraperitoneal administration (IP) of 100 μL of a triple anesthetic of medetomidine hydrochloride (0.75 mg/kg), mitazolam (4 mg/kg), and butorphanol tartrate (5 mg/kg)), and intrathecal transplantation was carried out, through the right coronal suture at a point 1 mm to the right of the center line defined by the sagittal suture, with a polyethylene stop tube-equipped microsyringe designed to inject BV173 cells (leukemia cells) precisely to a depth of 3 mm using a Hamilton syringe LT type needle tip style pst-3 and 25 gauge.
The FA-HP-β-CyD synthesized in Example 1 was used in this example.
The doses were set at 30 mg/kg for HP-β-CyD and 3 mg/kg for FA-HP-β-CyD by referring to the dose of HP-β-CyD for a mouse model of the hereditary lipid storage disease Niemann-Pick disease type C (NPC) (Int. J. Mol. Sci. 2021, 22, 452. https://doi.org/10.3390/ijms22010452).
as §8

A549 = experiment: Proliferation inhibitory action on low folate receptor-expressing cells (MTT assay); format: cell-based, human; settings: A549, 2.5-10 mM, 72 hours (FIG. 3)
Method: The proliferation inhibitory action on A549, a low folate receptor-expressing cell, was evaluated as follows.
A human non-small cell lung cancer cell line (A549) was used in this example. The FA-HP-β-CyD synthesized in Example 1 was used.
For cell proliferation, 2×10^4 cells of the […] were seeded with 100 μL DMEM medium (Sigma-Aldrich, USA) per well to a flatbottom 96-well plate (Greiner Labortechnik, Hamburg, Germany), and incubation for 72 hours was carried out with exposure to HP-β-CyD and FA-HP-β-CyD at different concentrations (0 mM (control: CT), 2.5 mM, 5 mM, 7.5 mM, and 10 mM). Evaluation was then carried out using a dimethyl-thiazole-diphenyl-tetrazolium (MTT) assay (Nacalai Tesque, Japan).

BV173 [6] = experiment: Cellular uptake of TRITC-labelled CyD, confocal microscopy; format: cell-based; settings: confocal microscopy (FIG. 6)
Method: The cellular uptake of FA-HP-β-CyD was evaluated as follows.
A leukemia cell line (BV173) was used in this example. The FA-HP-β-CyD synthesized in Example 1 was used.
10 mg HP-β-CyD or FA-HP-β-CyD and 1 mg of TRITC were dissolved in 400 μL of dimethyl sulfoxide (DMSO) with stirring for 24 hours and the solution was then gradually poured into acetone. A precipitate was obtained and was washed with water. This was freeze-dried to prepare TRITC-HP-β-CyD and TRITC-FA-HP-β-CyD.
The cells were then cultured at a cell density of 4×10e5 per well on a 6-well plate and were incubated with […], TRITC-HP-β-CyD, FA-HP-β-CyD, or HP-βCyD at different concentrations. A Zeiss LSM880 confocal microscope was used to observe the cells. Imaris (Zeiss) fluorescent image analysis software was used for analysis.
The Control refers to incubation at the same time as the other exposure groups, but without exposure to an agent. Cell localization was stained by DAPI and the cell membrane was stained with PlasMen Bright Green, and the cellular uptake of TRITC-FA-HP-β-CyD was evaluated using confocal microscopy.

With “2-hydroxypropyl-β-cyclodextrin [HP-β-CyD, reference compound]” the IC50 (K562 [1]) was 5.65 ± 0.96 mM, the IC50 (hepatocyte) was 12.9 ± 2.73 mM and the IC50 (K562-IMR) was 3.51 ± 0.12 mM. It also gave an IC50 (BV173 [2]) of 3.46 ± 0.33 mM, an IC50 (KBM5-STI) of 6.64 ± 0.18 mM and an IC50 (Ba/F3 P190) of 8.04 ± 0.71 mM. The IC50 (MYL-R) was 8.17 ± 0.15 mM, the IC50 (Ba/F3 P210) was 9.21 ± 0.054 mM and the “cell proliferation inhibitory capability on addition of an autophagy inhibitor” value (K562 [3]) was “such an effect is absent”. For the same substance, the “cell proliferation inhibitory capability on addition of an autophagy inhibitor” value (BV173 [4]) was “such an effect is absent”, the “survival in two-time administration model compared with one-time administration model” value ([5]; FIG. 14 compared with FIG. 13, FA-HP-β-CyD 3 mg/kg) was “an extension in survival was not observed” and the “P versus the vehicle group (survival)” value ([5]; administered two times, first and second week, FA-HP-β-CyD 3 mg/kg (FIG. 14)) was 0.182. For the same substance, the “P versus the vehicle group (survival)” value ([5]; single administration in the second week, FA-HP-β-CyD 3 mg/kg (FIG. 13)) was 0.0746, the “cytotoxic / antitumor activity on A549 low folate receptor-expressing cells” value (A549) was “strong cytotoxic activity” and the cellular uptake (BV173 [6]) was “almost no cellular intake”.
